Results from patent US10155768B2, “Fused pyrimidine compound or salt thereof” (TAIHO PHARMACEUTICAL CO., LTD., priority 2016, dated 2018).
pIC50: −log10 of the molar value. Where two headings read alike, the source gives them in different places.

Experiments:
[1] = mouse, microsomes, 0.5 h
Description: (§1) Solutions of the test compounds in DMSO/acetonitrile (the final concentration of each test compound was 1 μM, the final concentration of DMSO was 0.01%, and the final concentration of acetonitrile was 1%) were individually added to a liver microsome mixture solution (mouse liver microsome with a final concentration of 0.25 mg/mL, a potassium phosphate buffer with a final concentration of 100 mM, and magnesium chloride with a final concentration of 3 mM), and each mixture was pre-incubated at 37° C. for 5 minutes. […] After incubation at 37° C. for 30 minutes, a double amount of ethanol was added thereto to terminate the reaction, thereby obtaining post-reaction samples. A double amount of ethanol was added to each of the remaining mixture solutions, and a NADPH-generating system was further added thereto, thereby obtaining pre-reaction samples. The pre-reaction samples and post-reaction samples were centrifuged at 2000×g, and their supernatant was filtered through a glass filter. Each filtrate was then introduced into LC-MS/MS, and MS/MS peaks of the test compounds were detected. From the ratio of the post-reaction MS/MS peak to the pre-reaction MS/MS peak of the test compounds, the percentage of the remaining test compounds (remaining %) was calculated.

[2] = target: recombinant human RET protein (Homo sapiens (Human), UniProt P07949); assay: Measurement of inhibitory activity against RET (in vitro); assay type: biochemical; settings: ATP 10 μM
[3] = test system: TT cells (a human thyroid cancer cell line with RET activating mutation (C634W)); assay: Cell growth inhibitory effect (1), TT cells; assay type: cell-based; settings: 168 h, read-out: TT Cell GI50 (nM)
Description: An in vitro cytotoxicity test was performed on TT cells (a human thyroid cancer cell line with RET activating mutation (C634W)).
(§2) After shaking, each culture was allowed to stand at room temperature for 15 minutes, and the chemiluminescence was measured with a luminometer to use it as an index of the number of viable cells.
C: The absorbance of the well to which a test compound was not added. Day 1: The day on which a test compound was added. Day 8: The day on which evaluation was performed.

[4] = test system: TT cells (human thyroid cancer cell line with RET activating mutation); assay: In vivo antitumor effect, mice subcutaneously implanted with TT cells; parameters: species or system BALB/cA Jcl-nu/nu male mice; settings: 100 mg/kg/day oral, 14 days
Description: Human thyroid cancer cell lines (TT) were subcutaneously implanted into the right frank of 6- to 7-week-old BALB/cA Jcl-nu/nu male mice. After about 2 to 3 weeks from the cell implantation, the length (nm) and the width (mm) of tumors found in mouse bodies were measured. […] The day on which the mice were divided into groups was determined to be the “grouping day” (day 0 or 1).
A control group was administered a solvent (0.5% HPMC/0.1N HCl).
To determine the index of the antitumor effect, TV of each drug-administrated group was measured on day 15, and the tumor volume on day 15 relative to the tumor volume on the grouping day (day 0 or 1) (relative tumor volume: RTV) and T/C (%) were calculated from the following equations, and the antitumor effect was evaluated. […] TV(mm^3)=(length×width^2)/2 RTV=(TV on day 15)/(TV on day 0 or day 1) T/C(%)=(the mean RTV of a test compound treatment group)/(the mean RTV of the control group)×100

[5] = test system: LC-2/ad cells (a human lung adenocarcinoma cell line with CCDC6-RET fusion gene); assay: Cell growth inhibitory effect (2), LC-2/ad cells; assay type: cell-based; settings: 168 h, read-out: LC-2/ad Cell GI50
Description: An in vitro cytotoxicity test was performed on LC-2/ad cells (a human lung adenocarcinoma cell line with CCDC6-RET fusion gene).
as §2

[6] = Evaluation of stability in liver microsome; settings: mouse liver microsome 0.25 mg/mL, 1 μM test compound, 37° C. for 30 minutes
Description: as §1

Chain of recombinant human RET protein (P07949 29-1114): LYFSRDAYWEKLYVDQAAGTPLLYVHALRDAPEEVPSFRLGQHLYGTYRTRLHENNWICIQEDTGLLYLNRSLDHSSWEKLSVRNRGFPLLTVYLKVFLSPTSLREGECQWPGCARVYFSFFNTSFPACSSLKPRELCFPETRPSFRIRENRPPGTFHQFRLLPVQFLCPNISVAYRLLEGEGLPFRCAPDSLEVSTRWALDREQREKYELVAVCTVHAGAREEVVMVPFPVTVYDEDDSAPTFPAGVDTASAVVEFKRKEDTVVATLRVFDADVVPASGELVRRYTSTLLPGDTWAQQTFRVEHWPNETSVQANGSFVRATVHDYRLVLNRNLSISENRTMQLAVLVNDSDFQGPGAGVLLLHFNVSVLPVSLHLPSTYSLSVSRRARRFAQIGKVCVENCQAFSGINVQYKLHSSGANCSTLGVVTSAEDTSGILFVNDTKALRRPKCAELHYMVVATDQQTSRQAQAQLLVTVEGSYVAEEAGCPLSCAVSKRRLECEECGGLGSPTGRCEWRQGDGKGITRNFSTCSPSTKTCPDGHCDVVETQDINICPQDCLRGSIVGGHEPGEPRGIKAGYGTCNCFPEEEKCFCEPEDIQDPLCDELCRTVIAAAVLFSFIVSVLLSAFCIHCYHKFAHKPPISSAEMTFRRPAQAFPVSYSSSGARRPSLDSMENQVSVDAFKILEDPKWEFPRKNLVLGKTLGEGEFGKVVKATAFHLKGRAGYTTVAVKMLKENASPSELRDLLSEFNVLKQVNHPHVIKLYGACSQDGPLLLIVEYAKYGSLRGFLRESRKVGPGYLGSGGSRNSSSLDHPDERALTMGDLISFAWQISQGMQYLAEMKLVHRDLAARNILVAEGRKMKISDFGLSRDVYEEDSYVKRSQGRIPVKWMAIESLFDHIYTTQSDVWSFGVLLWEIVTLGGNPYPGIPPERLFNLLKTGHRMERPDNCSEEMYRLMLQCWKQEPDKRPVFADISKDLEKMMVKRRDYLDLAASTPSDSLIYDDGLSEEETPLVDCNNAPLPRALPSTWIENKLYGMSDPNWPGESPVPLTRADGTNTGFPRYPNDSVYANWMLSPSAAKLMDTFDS

## C/C=C/c1ccc(NC(=O)c2cn(C3(C)CC3)c3ncnc(N)c23)cc1 [Example 107, (E)-4-amino-7-(1-methylcyclopropyl)-N-(4-(prop-1-en-1-yl)phenyl)-7H-pyrrolo[2,3-d]pyrimidine-5-carboxamide]
[1]
  Remaining (%): 63%

## COCc1ccc(NC(=O)c2nn(-c3ccccc3)c3ncnc(N)c23)cc1 [Comound 5 of Comparative Examples, 4-amino-N-(4-(methoxymethyl)phenyl)-1-phenyl-1H-pyrazolo[3,4-d]pyrimidine-3-carboxamide]
[2]
  pIC50: < 5.30

## COCc1ccc(NC(=O)c2c(C#CCN3CCOCC3)n(C3(C)CC3)c3ncnc(N)c23)cc1 [Example 85, 4-amino-N-[4-(methoxymethyl)phenyl]-7-(1-methylcyclopropyl)-6-(3-morpholinoprop-1-yn-1-yl)-7H-pyrrolo[2,3-d]pyrimidine-5-carboxamide]
[3]
  GI50: 10 nM
[1]
  Remaining (%): 79%
[4]; day 15
  T/C (%): 23%
  TV (mm^3) Day 15 Mean ± SE: 139.42 ± 10.17 mm^3
[4]; day 15 relative to day 0
  RTV Day 15 Mean ± SE: 0.87 ± 0.13
[5]
  GI50: 17.7 nM

## C/C=C/c1ccc(NC(=O)c2c(OCC)n(C3(C)CC3)c3ncnc(N)c23)cc1 [Example 117, (E)-4-amino-6-ethoxy-7-(1-methylcyclopropyl)-N-(4-(prop-1-en-1-yl)phenyl)-7H-pyrrolo[2,3-d]pyrimidine-5-carboxamide]
[1]; 1 μM
  Remaining (%): 53%

## C#Cc1ccc(NC(=O)c2cn(C3(C)CC3)c3ncnc(N)c23)cc1 [Example 108, 4-amino-N-(4-ethynylphenyl)-7-(1-methylcyclopropyl)-7H-pyrrolo[2,3-d]pyrimidine-5-carboxamide]
[1]
  Remaining (%): 60%

## COCc1ccc(NC(=O)c2c(C#CCC(C)(C)O)n(C3(C)CC3)c3ncnc(N)c23)cc1 [Example 86, 4-amino-6-(4-hydroxy-4-methylpent-1-yn-1-yl)-N-[4-(methoxymethyl)phenyl]-7-(1-methylcyclopropyl)-7H-pyrrolo[2,3-d]pyrimidine-5-carboxamide]
[6]
  Remaining (%): 66%

## COCc1ccc(NC(=O)c2c(C#Cc3ccccc3)n(C3(C)CC3)c3ncnc(N)c23)cc1 [Example 162, 4-amino-N-(4-(methoxymethyl)phenyl)-7-(1-methylcyclopropyl)-6-(phenylethynyl)-7H-pyrrolo[2,3-d]pyrimidine-5-carboxamide]
[6]
  Remaining (%): 76%

## COCc1ccc(NC(=O)c2c(C#Cc3ccn(C)n3)n(C3(C)CC3)c3ncnc(N)c23)cc1 [Example 92, 4-amino-N-(4-(methoxymethyl)phenyl)-6-((1-methyl-1H-pyrazol-3-yl)ethynyl)-7-(1-methylcyclopropyl)-7H-pyrrolo[2,3-d]pyrimidine-5-carboxamide]
[6]
  Remaining (%): 67%

## COCc1ccc(NC(=O)c2c(Cl)n(C3(C)CC3)c3ncnc(N)c23)cc1 [Example 56, 4-amino-6-chloro-N-[4-(methoxymethyl)phenyl]-7-(1-methylcyclopropyl)-7H-pyrrolo[2,3-d]pyrimidine-5-carboxamide]
[6]
  Remaining (%): 62%

## COCc1ccc(NC(=O)c2c(C#Cc3cnn(C(C)C)c3)n(C3(C)CC3)c3ncnc(N)c23)cc1 [Example 144, 4-amino-6-((1-isopropyl-1H-pyrazol-4-yl)ethynyl)-N-(4-(methoxymethyl)phenyl)-7-(1-methylcyclopropyl)-7H-pyrrolo[2,3-d]pyrimidine-5-carboxamide]
[6]
  Remaining (%): 79%

## CC(C)(C)n1cc(C(=O)Nc2ccc(-c3cc[nH]n3)cc2)c2c(N)ncnc21 [Example 80, N-(4-(1H-pyrazol-3-yl)phenyl)-4-amino-7-(tert-butyl)-7H-pyrrolo[2,3-d]pyrimidine-5-carboxamide]
[6]
  Remaining (%): 50%
